Measurements: patent US8232406B2, “c-MET protein kinase inhibitors” (Vertex Pharmaceuticals Incorporated, priority 2006, dated 2012)

Biological target: c-MET (Homo sapiens, UniProt P08581)
Experiment: Ki determination for the inhibition of c-MET (standard radiometric 33P-ATP kinase assay, polyE4Y substrate)
Type: biochemical
Settings: 1.0 nM c-Met, 35 μM ATP, 0.5 mg/mL polyE4Y, 20 min; competitive tight-binding fit
Procedure, shortened: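 Radiometric assay of 33P transfer from 33P-ATP (35 μM) to polyE4Y (0.5 mg/mL) by 1.0 nM c-Met in 100 mM HEPES pH 7.5, 10 mM MgCl2, 25 mM NaCl, 0.01% BSA, 1 mM DTT. TCA-quenched after 20 min, filter-captured, scintillation-counted; Ki fitted to a competitive tight-binding model.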

Sequence of c-MET (P08581 25-1390): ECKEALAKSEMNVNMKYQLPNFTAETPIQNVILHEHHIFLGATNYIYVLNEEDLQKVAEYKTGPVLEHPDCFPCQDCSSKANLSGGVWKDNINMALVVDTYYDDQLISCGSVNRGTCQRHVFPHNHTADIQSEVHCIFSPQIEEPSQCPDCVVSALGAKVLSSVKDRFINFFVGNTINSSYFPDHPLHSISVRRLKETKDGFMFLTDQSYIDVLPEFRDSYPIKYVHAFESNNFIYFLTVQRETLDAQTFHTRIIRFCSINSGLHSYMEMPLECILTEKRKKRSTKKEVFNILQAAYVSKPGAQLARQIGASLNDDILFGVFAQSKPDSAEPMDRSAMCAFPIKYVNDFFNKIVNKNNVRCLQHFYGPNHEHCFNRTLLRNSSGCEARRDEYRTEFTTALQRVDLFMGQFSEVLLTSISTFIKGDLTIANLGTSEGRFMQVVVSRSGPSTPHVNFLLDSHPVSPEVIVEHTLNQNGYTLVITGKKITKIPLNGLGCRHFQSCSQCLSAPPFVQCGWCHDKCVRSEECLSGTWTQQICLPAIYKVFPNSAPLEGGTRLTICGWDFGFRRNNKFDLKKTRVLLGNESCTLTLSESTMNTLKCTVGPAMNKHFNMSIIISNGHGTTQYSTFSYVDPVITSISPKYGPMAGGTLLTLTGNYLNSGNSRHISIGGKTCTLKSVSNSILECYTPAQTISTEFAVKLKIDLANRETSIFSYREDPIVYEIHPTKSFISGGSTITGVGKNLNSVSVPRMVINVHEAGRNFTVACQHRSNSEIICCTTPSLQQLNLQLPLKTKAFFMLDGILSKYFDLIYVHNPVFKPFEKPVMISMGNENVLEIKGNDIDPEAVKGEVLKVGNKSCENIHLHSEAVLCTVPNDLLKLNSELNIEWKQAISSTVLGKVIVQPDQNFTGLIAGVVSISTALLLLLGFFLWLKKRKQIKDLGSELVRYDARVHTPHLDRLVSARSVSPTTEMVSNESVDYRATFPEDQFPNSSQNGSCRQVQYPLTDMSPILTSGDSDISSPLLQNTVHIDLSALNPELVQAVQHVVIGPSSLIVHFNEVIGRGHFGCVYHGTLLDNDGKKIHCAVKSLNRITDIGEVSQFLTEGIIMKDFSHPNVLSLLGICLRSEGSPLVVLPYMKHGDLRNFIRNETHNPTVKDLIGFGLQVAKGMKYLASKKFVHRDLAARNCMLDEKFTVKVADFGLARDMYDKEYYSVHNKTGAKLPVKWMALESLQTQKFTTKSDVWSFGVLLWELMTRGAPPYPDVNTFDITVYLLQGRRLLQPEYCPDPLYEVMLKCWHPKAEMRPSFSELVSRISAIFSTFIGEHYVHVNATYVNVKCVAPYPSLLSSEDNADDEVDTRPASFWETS

| Compound | Ki [nM] |
| --- | --- |
| Nc1ncc(-c2cnn(CCN3CCCC3)c2)cc1-c1nnnn1-c1cccc(F)c1F [I-A-407] | ≤ 100 |
| CNC(=O)Cn1cc(-c2cnc(N)c(-c3nnnn3-c3cccc(F)c3F)c2)cn1 [I-A-369] | 100 to 1000 |
| Cc1c(F)cccc1-n1nnnc1-c1cc(-c2ccc(CN3CCCC3)cc2)cnc1N [I-A-598] | 100 to 1000 |
| CN(C)Cc1ccc(-c2cnc(N)c(-c3nnnn3-c3c(F)ccc(F)c3Cl)c2)cc1 [I-A-630] | ≤ 100 |
| Cc1ccc(Cl)cc1-n1nnnc1-c1cc(-c2ccc(CN3CCCC3)cc2)cnc1N [I-A-600] | 100 to 1000 |
| Nc1ncc(-c2ccccc2O)cc1-c1nnnn1-c1cccc(F)c1F [I-A-145] | ≤ 100 |
| NC(=O)[C@@H]1CCCN1Cc1ccc(-c2cnc(N)c(-c3nnnn3-c3cccc(Cl)c3Cl)c2)cc1 [I-A-121] | ≤ 100 |
| Nc1ncc(-c2ccc(OCCN3CCCC3)cc2)cc1-c1nnnn1-c1cccc(F)c1F [I-A-346] | ≤ 100 |
| COCCN(CCOC)Cc1ccc(-c2cnc(N)c(-c3nnnn3-c3cccc(Cl)c3Cl)c2)cc1 [I-A-101] | 100 to 1000 |
| Nc1ncc(-c2cnc3ccccc3c2)nc1-c1nncn1-c1cccc(F)c1F [I-A-33] | 100 to 1000 |
| Cn1cc(-c2cccc(Cl)c2Cl)c(-c2cc(-c3cccnc3)cnc2N)n1 [I-B-16] | 100 to 1000 |
| CC(=O)N1CCC[C@@H]1C(=O)N1CC=C(c2cnc(N)c(-c3nnnn3-c3cccc(F)c3F)c2)CC1 [I-A-649] | 100 to 1000 |
| CN(C)C(=O)N1CCC(n2cc(-c3cnc(N)c(-c4nnnn4-c4cccc(Cl)c4F)c3)cn2)CC1 [I-A-445] | ≤ 100 |
| COc1cc(O)ccc1-c1cnc(N)c(-c2nnnn2-c2cccc(F)c2F)c1 [I-A-220] | ≤ 100 |
| C[C@H](c1ccc(-c2cnc(N)c(-c3nnnn3-c3cccc(F)c3F)c2)cc1)N(C)C [I-A-152] | ≤ 100 |
| C[C@@H](C(=O)N1CC=C(c2cnc(N)c(-c3nnnn3-c3cccc(F)c3F)c2)CC1)N1CCCC1=O [I-A-517] | 100 to 1000 |
| CN(C)Cc1ccc(-c2cnc(N)c(-c3nnnn3-c3cc(F)cc(F)c3Cl)c2)cc1 [I-A-605] | 100 to 1000 |
| CN(C)Cc1ccc(-c2cnc(N)c(-c3nc4cnccc4n3-c3cccc(F)c3F)c2)cc1 [I-D-4] | ≤ 100 |
| CC1(C)CN(c2ccc(-c3cnc(N)c(-c4nnnn4-c4cccc(F)c4F)c3)cc2)C1=O [I-A-357] | 100 to 1000 |
| Nc1ncc(-c2cccc3c2OC(F)(F)O3)cc1-c1nnnn1-c1cccc(F)c1F [I-A-310] | 100 to 1000 |
| COc1c(F)cccc1-n1nnnc1-c1cc(-c2cccc(NC(C)=O)c2)cnc1N [I-A-562] | 100 to 1000 |
| Nc1ncc(-c2cn(C3CCNCC3)nn2)cc1-c1nnnn1-c1cccc(F)c1F [I-A-483, 3-(1-(2,3-Difluorophenyl)-1H-tetrazol-5-yl)-5-(1-(piperidin-4-yl)-1H-1,2,3-triazol-4-yl)pyridin-2-amine] | ≤ 100 |
| Nc1ncc(-c2ccc(CN3CCCC3)cc2)cc1-c1nnnn1-c1cccc(Cl)c1Cl [I-A-94] | ≤ 100 |
| COc1ccc(F)cc1-n1nnnc1-c1cc(-c2ccc(CN3CCCC3)cc2)cnc1N [I-A-602] | 100 to 1000 |
| Nc1ncc(-c2cc(O)c(F)c(F)c2)cc1-c1nnnn1-c1cccc(F)c1F [I-A-291] | 100 to 1000 |
| Nc1ncc(-c2cnn(C3CCNCC3)c2)cc1-c1nnnn1-c1c(Cl)cccc1Cl [I-A-631] | ≤ 100 |
| Nc1ncc(-c2cnn(C3CCN(CC(F)F)CC3)c2)cc1-c1nnnn1-c1cccc(F)c1F [I-A-453] | ≤ 100 |

| Compound | Ki [nM] |
| --- | --- |
| CS(=O)(=O)c1ccc(-c2cnc(N)c(-c3nncn3-c3cccc(F)c3F)n2)cc1 [I-A-32] | ≤ 100 |
| CC(C)(C)OC(=O)N1CC=C(c2cnc(N)c(-c3nnnn3-c3cccc(F)c3F)c2)CC1 [I-A-506] | ≤ 100 |
| Nc1ncc(-c2ccc3c(c2)C(=O)C(=O)N3)cc1-c1nnnn1-c1cccc(F)c1F [I-A-204] | ≤ 100 |
| Nc1ncc(-c2cnn(C3CNC3)c2)cc1-c1nnnn1-c1cccc(Cl)c1Cl [I-A-427] | ≤ 100 |
| Nc1ncc(-c2ccc(NC(=O)c3ccco3)cc2)cc1-c1nnnn1-c1cccc(F)c1F [I-A-162] | 100 to 1000 |
| Cc1ccc(-c2cnc(N)c(-c3nnnn3-c3cccc(F)c3F)c2)cc1 [I-A-255] | 100 to 1000 |
| COc1cccc(-c2cnc(N)c(-c3nnnn3-c3cccc(F)c3F)c2)c1 [I-A-221] | ≤ 100 |
| Nc1ncc(-c2ccc(CN3CC[C@H](O)C3)cc2)cc1-c1nnnn1-c1cccc(F)c1F [I-A-131] | ≤ 100 |
| Cc1nn(C2CCNCC2)c(C)c1-c1cnc(N)c(-c2nnnn2-c2cccc(F)c2F)c1 [I-A-478] | 100 to 1000 |
| Nc1ncc(-c2cnn(CCN3CCCC3)c2)cc1-c1nnnn1-c1cccc(Cl)c1Cl [I-A-411] | ≤ 100 |
| Nc1ncc(-c2ccc(-n3ccnc3)nc2)cc1-c1nnnn1-c1cccc(F)c1F [I-A-128] | ≤ 100 |
| Cn1cc(-c2cccc(Cl)c2Cl)c(-c2cc(-c3ccc(N4CCCC4)nc3)cnc2N)n1 [I-B-20] | 100 to 1000 |
| Nc1ncc(-c2ccc(CN3CCC[C@@H]3CN3CCCC3)cc2)cc1-c1nnnn1-c1cccc(Cl)c1Cl [I-A-118] | ≤ 100 |
| Nc1ncc(-c2ccc(CN3CCCC3)cc2)cc1-c1nnnn1-c1cccc(Cl)c1 [I-A-356] | 100 to 1000 |
| Nc1ncc(-c2ccc(N3CCNCC3)cc2)cc1-c1nc2cc(F)ccc2n1-c1cccc(Cl)c1F [I-D-20] | 100 to 1000 |
| Nc1ncc(-c2cccc(C(F)(F)F)c2)cc1-c1nnnn1-c1cccc(F)c1F [I-A-215] | 100 to 1000 |
| Nc1ncc(-c2ccc(C3CCOC(=O)N3)cc2)cc1-c1nnnn1-c1cccc(F)c1F (centres unmarked) [I-A-325] | ≤ 100 |
| Nc1ncc(C2=CCN(C(=O)c3cccnc3)CC2)cc1-c1nnnn1-c1cccc(F)c1F [I-A-507] | ≤ 100 |
| Cn1cnc(-c2cnc(N)c(-c3nnnn3-c3cccc(F)c3F)c2)c1 [I-A-495] | 100 to 1000 |
| COC(=O)Nc1ccc(-c2cnc(N)c(-c3nnnn3-c3cccc(F)c3F)c2)cc1 [I-A-352] | 100 to 1000 |
| Nc1nc2cc(F)c(-c3cnc(N)c(-c4nncn4-c4cccc(F)c4F)n3)cc2[nH]1 [I-A-56] | ≤ 100 |
| CCC(CC)C(=O)Nc1ccc(-c2cnc(N)c(-c3nnnn3-c3cccc(F)c3F)c2)cc1 [I-A-197] | ≤ 100 |
| Nc1ncc(-c2ccccc2)cc1-c1nnnn1-c1cccc(F)c1F [I-A-233] | ≤ 100 |
| Cc1nnc(-c2cc(-c3ccc(CN4CCCC4)cc3)cnc2N)n1-c1cccc(F)c1Cl [I-A-388] | 100 to 1000 |
| Nc1ccc(-c2cnc(N)c(-c3nncn3-c3cccc(F)c3F)n2)cc1 [I-A-10] | ≤ 100 |
| Nc1ncc(-c2ccc(N3CCNCC3)cc2)cc1-c1nc2cccnc2n1-c1cccc(Cl)c1F [I-D-16] | 100 to 1000 |
| Nc1ncc(-c2cccc(NC(=O)NC3CCCC3)c2)cc1-c1nnnn1-c1cccc(F)c1F [I-A-329] | ≤ 100 |

| Compound | Ki [nM] |
| --- | --- |
| CN(C)Cc1cccc(-c2cnc(N)c(-c3nnnn3-c3cccc(Cl)c3Cl)c2)c1 [I-A-123] | ≤ 100 |
| CC(=O)N1CCC(n2cc(-c3cnc(N)c(-c4nncn4-c4cccc(Cl)c4F)c3)cn2)CC1 [I-A-450] | ≤ 100 |
| CC1CCC(C)N1Cc1ccc(-c2cnc(N)c(-c3nnnn3-c3cccc(F)c3F)c2)cc1 (centres unmarked) [I-A-210] | ≤ 100 |
| Nc1ncc(-c2ccc(CN3CC4CC3CO4)cc2)cc1-c1nnnn1-c1cccc(F)c1F (centres unmarked) [I-A-265] | ≤ 100 |
| Nc1ncc(-c2cccnc2)cc1-c1ncsc1-c1cccc(Cl)c1Cl [I-C-8, 3-(5-(2,3-Dichlorophenyl)thiazol-4-yl)-5-(pyridin-3-yl)pyridin-2-amine] | 100 to 1000 |
| CN(C(=O)Nc1cccc(-c2cnc(N)c(-c3nnnn3-c3cccc(F)c3F)c2)c1)c1ccccc1 [I-A-274] | 100 to 1000 |
| Nc1ncc(-c2cc(F)cc(F)c2)cc1-c1nnnn1-c1cccc(F)c1F [I-A-288] | 100 to 1000 |
| Nc1ncc(-c2ccc(CC3(O)CCNCC3)cc2)cc1-c1nnnn1-c1cccc(F)c1F [I-A-157] | ≤ 100 |
| Nc1ncc(-c2csc(C3CCNCC3)c2)nc1-c1nnnn1-c1cccc(F)c1F [I-A-654] | 100 to 1000 |
| CC(=O)Nc1ccc(-c2cnc(N)c(-c3nnnn3-c3cc(Cl)ccc3F)c2)cc1 [I-A-582] | 100 to 1000 |
| Nc1ncc(-c2cnn(C3CCN(CC(F)F)CC3)c2)cc1-c1nncn1-c1cccc(Cl)c1F [I-A-460] | ≤ 100 |
| Nc1ncc(-c2ccc(C3CCNCC3)cc2)cc1-n1nnnc1-c1cccc(F)c1F [I-E-3] | 100 to 1000 |
| Nc1ncc(-c2cnn(CC3CCNCC3)c2)cc1-c1nnnn1-c1cccc(F)c1F [I-A-502] | ≤ 100 |
| CN(C)Cc1ccc(-c2cnc(N)c(-c3nnnn3-c3cccc(Cl)c3Cl)c2)cc1 [I-A-79] | ≤ 100 |
| Nc1ncc(-c2ccc(CN3CC[C@H](O)C3)cc2)cc1-c1nnnn1-c1cccc(Cl)c1Cl [I-A-120] | ≤ 100 |
| C[C@@H](N)c1ccc(-c2cnc(N)c(-c3nnnn3-c3cccc(F)c3F)c2)cc1 [I-A-153] | ≤ 100 |
| N#Cc1ccc(-c2cnc(N)c(-c3nncn3-c3cccc(F)c3F)c2)cc1 [I-A-113] | 100 to 1000 |
| CCCN(CCC)Cc1ccc(-c2cnc(N)c(-c3nnnn3-c3cccc(F)c3F)c2)cc1 [I-A-156] | ≤ 100 |
| Nc1ncc(-c2ccc3nccnc3c2)cc1-c1nnnn1-c1cccc(F)c1F [I-A-304] | 100 to 1000 |
| Nc1ncc(C2=CCN(C3CCNCC3)CC2)cc1-c1nnnn1-c1cccc(F)c1F [I-A-424] | 100 to 1000 |
| Nc1ncc(-c2ccc(CN3CCC[C@H]3CO)cc2)cc1-c1nnnn1-c1cccc(Cl)c1Cl [I-A-122] | ≤ 100 |
| Nc1ncc(-c2ccc(CN3CCCC3)cc2)cc1-c1nnnn1-c1cc(F)ccc1Cl [I-A-596] | 100 to 1000 |
| Nc1ncc(-c2nc3c(s2)CNCC3)cc1-c1nnnn1-c1cccc(F)c1F [I-A-465] | 100 to 1000 |
| Nc1nc2cc(F)c(-c3cnc(N)c(-c4nnnn4-c4cccc(F)c4F)n3)cc2[nH]1 [I-A-52] | ≤ 100 |
| Nc1ncc(-c2cnn(C3CCN(CC4CCCC4)CC3)c2)cc1-c1nnnn1-c1cccc(Cl)c1F [I-A-474] | ≤ 100 |
| CN(C)Cc1ccc(-c2cnc(N)c(-c3nnnn3-c3c(Cl)cccc3Cl)c2)cc1 [I-A-629] | ≤ 100 |
